Laboratory results taken from US9775844B2, “Heterocyclic compounds and uses thereof” (Infinity Pharmaceuticals, Inc., priority 2014, dated 2017).
Where two headings read alike, the source gives them in different places. Blank lines part the entries; values can stand above or below the compound they belong to.

Assays:
post-irradiated tumors = details: cited from earlier work
[1] = system: haematological malignancies; details: cited from earlier work
CCL3, CCL4, and CXCL13 = details: CLL; cited from earlier work
[2] = Human pharmacokinetic prediction based on non-human animal studies
Description: Based on non-human animal studies, a predicted human dose to achieve exposure at the IC90 for PI3K-γ is approximately 2 mg. […] In some embodiments, the dose (e.g., a therapeutically effective dose) is about 2 mg, 1-3 mg, 1-5 mg, 1-10 mg, 0.5-20 mg, 0.1-50 mg, 0.1-75 mg, 0.5-75 mg, 1-75 mg, 0.1-100 mg, 0.5-100 mg, or 1-100 mg. In some embodiments, the dose is about 1-10 mg. In some embodiments, the dose is about 1-50 mg. In some embodiments, the dose is about 1-100 mg. In a 70 kg human, a 2 mg dose corresponds to 0.029 mg/kg.

PI3K α = PI3K α (Homo sapiens (Human), UniProt P42336); experiment: PI3-Kinase Promega ADP-Glo Max assay; assay type: biochemical
PI3K β = PI3K β (Homo sapiens (Human), UniProt P42338); experiment: PI3-Kinase Promega ADP-Glo Max assay; assay type: biochemical
PI3K δ = PI3K δ (Homo sapiens (Human), UniProt O00329); experiment: PI3-Kinase Promega ADP-Glo Max assay; assay type: biochemical
PI3K γ = PI3K γ (Homo sapiens (Human), UniProt P48736); experiment: PI3-Kinase Promega ADP-Glo Max assay; assay type: biochemical
PI3K-δ in RAJI cells = PI3K-δ in RAJI cells (Homo sapiens (Human), UniProt O00329); experiment: RAJI p110 δ assay (PI3K-δ selective cellular assay, phospho-AKT); assay type: cell-based
[3] = target: PI3K-γ in RAW264.7 macrophages (Mus musculus (Mouse), UniProt Q9JHG7); experiment: Raw264.7 p110 γ assay (PI3K-γ selective cellular assay, C5a-stimulated phospho-AKT); assay type: cell-based
[4] = Mouse pharmacokinetics, oral single and repeat dose; assay type: in vivo; details: for tlast / AUC(0-t) / Cmax / Tmax / AUC(0-inf) / half-life: female C57 mice; for AUC(0-t): female, C57, mouse, po; for AUC(0-t) / Cmax / Tmax / AUC(0-inf) / half-life: plasma; for Cmax / Tmax / AUC(0-inf) / half-life: mouse
Description: Animals were weighed daily prior to dosing. […] On subsequent dosing days, the animals' condition was noted prior to dosing; the animals were observed within 4 hours of dosing, and at the end of the day.
Samples were collected at pre-dose 0.25, 0.5, 1, 2, 4, 6 and 24 h following the first dose on day 1 and pre-dose (trough), 0.25, 0.5, 1, 2, 4, 6 and 24 h following the final dose on day 3 Animals received a single oral dose daily for 3 consecutive days. Blood was collected by retro-orbital bleeding for all time points on day 1. All other blood sampling was collected by a cardiac puncture. Blood was collected into K2EDTA tubes and placed on wet ice. Within 15 min of collection, the sample was centrifuged at 10,000 rpm at 4° C. for 10 min in a bench top centrifuge and the plasma transferred to a new microcentrifuge tube.
A similar study was carried out using Compound 88. […] Below is a table that details the results for Compound 88: […]

human T cells = experiment: Concanavalin A-induced model for activation of human T cells (IFN-γ); assay type: cell-based
PI3K-α in SKOV-3 cells = PI3K-α in SKOV-3 cells (Homo sapiens (Human), UniProt P42336, H1047R); experiment: PI3K-α selective cellular assay (phospho-AKT); assay type: cell-based
PI3K-β in 786-O cells = PI3K-β in 786-O cells (Homo sapiens (Human), UniProt P42338); experiment: PI3K-β selective cellular assay (phospho-AKT); assay type: cell-based
[5] = system: LPS induced neutrophil influx in bronchoalveolar lavage fluid; experiment: LPS-induced neutrophilia, oral administration; assay type: in vivo; details: rat, p.o., 4 hours post-LPS challenge, dose dependent
Description: (§1) This study also includes assessment of the exposure to the compounds in plasma and lung tissues.
(§2) Ref C is budesonide p.o. The compound was administered p.o. and about 1 hour later, LPS was administered intra-tracheally and plasma was collected. After about 5 hours, plasma and bronchoalveolar lavage samples were collected.

[6] = Oral PK in the rat LPS studies (free plasma concentration); assay type: in vivo; details: for concentration at 1.5 h / concentration at […]: plasma, po, read-out: Free Plasma Conc; for concentration at […]: 5.5h
Description: as §1, §2

[7] = system: CXCL12 induced p-AKT in polarized bone marrow derived macrophages; experiment: CXCL12-induced p-AKT induction assay in differentiated macrophages; assay type: cell-based, mouse
Excerpt: Macrophage Differentiation and Polarization: Long bones from young C57B6 mice were harvested and bone marrow was extruded by gentle lavage of the bone marrow cavities with a 28 gauge needle. Red blood cells were removed using red blood cell lysis buffer (Sigma). Bone marrow cells were differentiated to macrophages using MCSF for 6 days (RPMI and 20% FCS) with one media change (with removal of all non-adherent cells) at day 3. Macrophages were polarized into MO (MCSF), M1 (MCSF, IFNγ, and LPS for 1 day), or M2 (MCSF, IL4 for 2 days).
CXCL12-Induced p-AKT Induction Assay: Polarized macrophages were lifted with Acutase, and plated at 0.5M cells per well (0.5 ml) in a deep well (2 ml) non adherant plate in polarization media for 1 hour. […] CXCL12 was added, and the cells were mixed on a plate shaker for 2 minutes. 1 ml of 37 degree FACS Lyse/fix buffer (BD bioscience) was added and the plate was mixed for 1 minute. The plates were spun and decanted and frozen at −80° C. Phospho AKT staining with anti Phospho AKT 473 PERCP labeled (Cell Signaling Technologies) was performed and measured by flow cytometry. Total cell MFI was used to calculate the effect of tested compound on CXCL12 induction of phospho AKT.

PI3K-delta = PI3K-delta (Homo sapiens (Human), UniProt O00329); details: as described in Table 4 of WO2013/032591; cited from earlier work
[8] = system: IL-8 induced neutrophil migration; experiment: IL-8 driven murine air pouch model; details: mouse air pouch; BB 0.1-3 mg/kg, AA 10-50 mg/kg
LLC tumor brei = LLC tumor brei model with or without cyclophosphamide (tumor growth, FACS); assay type: in vivo, mouse; details: Compound BB 15 mg/kg QD PO; cyclophosphamide 50 mg/kg EOD IP
[9] = phospho-AKT, read-out: RAJI p110 δ assay IC50
[10] = phospho-AKT, read-out: Raw264.7 p110 γ assay IC50

Chain of PI3K-γ in RAW264.7 macrophages (Q9JHG7 whole entry): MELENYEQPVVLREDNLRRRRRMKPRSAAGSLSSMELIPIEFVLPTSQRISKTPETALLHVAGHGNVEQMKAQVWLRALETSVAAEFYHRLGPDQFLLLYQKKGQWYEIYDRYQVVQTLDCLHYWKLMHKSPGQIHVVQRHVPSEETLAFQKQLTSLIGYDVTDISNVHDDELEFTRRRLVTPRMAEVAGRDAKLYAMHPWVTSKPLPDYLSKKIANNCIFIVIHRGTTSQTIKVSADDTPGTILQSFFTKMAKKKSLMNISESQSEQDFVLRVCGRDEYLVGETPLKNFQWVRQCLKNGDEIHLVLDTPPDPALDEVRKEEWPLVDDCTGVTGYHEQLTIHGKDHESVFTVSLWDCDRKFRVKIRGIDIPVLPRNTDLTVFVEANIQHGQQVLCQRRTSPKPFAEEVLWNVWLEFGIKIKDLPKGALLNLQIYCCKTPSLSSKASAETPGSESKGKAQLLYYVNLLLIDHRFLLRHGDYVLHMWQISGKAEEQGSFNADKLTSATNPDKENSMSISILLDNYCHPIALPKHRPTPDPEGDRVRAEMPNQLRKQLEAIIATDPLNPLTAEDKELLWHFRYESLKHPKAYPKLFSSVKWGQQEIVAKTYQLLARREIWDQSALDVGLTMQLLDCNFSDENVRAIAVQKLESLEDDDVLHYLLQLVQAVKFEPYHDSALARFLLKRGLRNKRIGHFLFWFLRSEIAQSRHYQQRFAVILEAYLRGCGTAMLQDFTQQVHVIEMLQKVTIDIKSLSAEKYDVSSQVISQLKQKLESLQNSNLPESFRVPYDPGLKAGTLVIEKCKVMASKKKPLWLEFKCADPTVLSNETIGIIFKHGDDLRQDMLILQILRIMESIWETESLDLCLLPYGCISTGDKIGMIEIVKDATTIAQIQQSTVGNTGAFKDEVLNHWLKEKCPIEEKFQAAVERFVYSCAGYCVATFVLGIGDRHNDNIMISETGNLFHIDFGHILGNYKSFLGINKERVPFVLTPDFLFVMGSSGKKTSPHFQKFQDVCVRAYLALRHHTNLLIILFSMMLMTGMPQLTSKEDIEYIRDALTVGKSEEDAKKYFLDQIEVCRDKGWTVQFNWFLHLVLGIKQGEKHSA
Chain of PI3K δ (O00329 whole entry): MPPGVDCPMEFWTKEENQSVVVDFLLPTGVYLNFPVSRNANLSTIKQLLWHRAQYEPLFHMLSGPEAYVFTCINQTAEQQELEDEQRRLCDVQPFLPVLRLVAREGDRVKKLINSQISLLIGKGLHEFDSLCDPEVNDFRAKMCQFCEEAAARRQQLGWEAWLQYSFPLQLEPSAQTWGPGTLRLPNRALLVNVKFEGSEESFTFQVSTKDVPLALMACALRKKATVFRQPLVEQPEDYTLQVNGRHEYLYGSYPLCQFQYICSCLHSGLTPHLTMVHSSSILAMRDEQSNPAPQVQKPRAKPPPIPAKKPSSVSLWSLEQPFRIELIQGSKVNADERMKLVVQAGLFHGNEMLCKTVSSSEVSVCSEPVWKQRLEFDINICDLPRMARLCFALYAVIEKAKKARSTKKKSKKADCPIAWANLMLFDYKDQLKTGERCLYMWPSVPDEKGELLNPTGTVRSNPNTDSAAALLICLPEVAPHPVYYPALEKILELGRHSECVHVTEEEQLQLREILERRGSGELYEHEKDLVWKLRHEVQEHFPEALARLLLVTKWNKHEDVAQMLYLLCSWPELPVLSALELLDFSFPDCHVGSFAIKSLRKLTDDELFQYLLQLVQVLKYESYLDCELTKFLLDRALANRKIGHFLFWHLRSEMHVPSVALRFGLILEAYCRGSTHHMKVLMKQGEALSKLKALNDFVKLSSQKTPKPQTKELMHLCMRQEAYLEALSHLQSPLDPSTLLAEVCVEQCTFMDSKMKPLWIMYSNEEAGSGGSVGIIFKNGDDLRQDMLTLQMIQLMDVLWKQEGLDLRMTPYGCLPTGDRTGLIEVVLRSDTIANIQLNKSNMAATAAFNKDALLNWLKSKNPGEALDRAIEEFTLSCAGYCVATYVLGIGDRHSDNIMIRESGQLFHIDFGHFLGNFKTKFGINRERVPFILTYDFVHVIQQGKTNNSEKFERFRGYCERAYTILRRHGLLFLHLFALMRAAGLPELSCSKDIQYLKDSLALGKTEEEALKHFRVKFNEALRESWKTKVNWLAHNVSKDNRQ
Chain of PI3K δ (P27986 whole entry partner): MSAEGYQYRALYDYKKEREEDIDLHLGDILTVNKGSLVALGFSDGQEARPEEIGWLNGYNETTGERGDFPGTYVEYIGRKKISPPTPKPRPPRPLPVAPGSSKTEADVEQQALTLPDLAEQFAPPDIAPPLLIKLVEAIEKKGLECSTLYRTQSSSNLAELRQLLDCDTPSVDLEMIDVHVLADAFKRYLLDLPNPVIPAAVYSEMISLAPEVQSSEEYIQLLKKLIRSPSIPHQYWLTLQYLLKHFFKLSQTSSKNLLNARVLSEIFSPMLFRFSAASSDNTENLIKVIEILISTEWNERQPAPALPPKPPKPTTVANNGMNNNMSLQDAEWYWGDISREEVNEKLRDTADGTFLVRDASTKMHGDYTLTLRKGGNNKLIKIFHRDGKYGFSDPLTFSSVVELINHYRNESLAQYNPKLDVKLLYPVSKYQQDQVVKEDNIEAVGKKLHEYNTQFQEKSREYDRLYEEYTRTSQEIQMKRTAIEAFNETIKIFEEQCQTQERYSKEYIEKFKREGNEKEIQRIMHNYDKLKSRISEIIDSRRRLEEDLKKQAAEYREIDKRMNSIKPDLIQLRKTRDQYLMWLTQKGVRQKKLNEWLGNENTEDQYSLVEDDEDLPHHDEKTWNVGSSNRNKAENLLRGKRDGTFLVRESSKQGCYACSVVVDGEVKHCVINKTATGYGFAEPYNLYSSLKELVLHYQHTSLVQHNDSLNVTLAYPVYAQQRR
Chain of PI3K-δ in RAJI cells (O00329 whole entry): as the sequence (O00329 whole entry) above
Chain of PI3K-δ in RAJI cells (P27986 whole entry partner): as the sequence (P27986 whole entry partner) above
Chain of PI3K γ (P48736 whole entry): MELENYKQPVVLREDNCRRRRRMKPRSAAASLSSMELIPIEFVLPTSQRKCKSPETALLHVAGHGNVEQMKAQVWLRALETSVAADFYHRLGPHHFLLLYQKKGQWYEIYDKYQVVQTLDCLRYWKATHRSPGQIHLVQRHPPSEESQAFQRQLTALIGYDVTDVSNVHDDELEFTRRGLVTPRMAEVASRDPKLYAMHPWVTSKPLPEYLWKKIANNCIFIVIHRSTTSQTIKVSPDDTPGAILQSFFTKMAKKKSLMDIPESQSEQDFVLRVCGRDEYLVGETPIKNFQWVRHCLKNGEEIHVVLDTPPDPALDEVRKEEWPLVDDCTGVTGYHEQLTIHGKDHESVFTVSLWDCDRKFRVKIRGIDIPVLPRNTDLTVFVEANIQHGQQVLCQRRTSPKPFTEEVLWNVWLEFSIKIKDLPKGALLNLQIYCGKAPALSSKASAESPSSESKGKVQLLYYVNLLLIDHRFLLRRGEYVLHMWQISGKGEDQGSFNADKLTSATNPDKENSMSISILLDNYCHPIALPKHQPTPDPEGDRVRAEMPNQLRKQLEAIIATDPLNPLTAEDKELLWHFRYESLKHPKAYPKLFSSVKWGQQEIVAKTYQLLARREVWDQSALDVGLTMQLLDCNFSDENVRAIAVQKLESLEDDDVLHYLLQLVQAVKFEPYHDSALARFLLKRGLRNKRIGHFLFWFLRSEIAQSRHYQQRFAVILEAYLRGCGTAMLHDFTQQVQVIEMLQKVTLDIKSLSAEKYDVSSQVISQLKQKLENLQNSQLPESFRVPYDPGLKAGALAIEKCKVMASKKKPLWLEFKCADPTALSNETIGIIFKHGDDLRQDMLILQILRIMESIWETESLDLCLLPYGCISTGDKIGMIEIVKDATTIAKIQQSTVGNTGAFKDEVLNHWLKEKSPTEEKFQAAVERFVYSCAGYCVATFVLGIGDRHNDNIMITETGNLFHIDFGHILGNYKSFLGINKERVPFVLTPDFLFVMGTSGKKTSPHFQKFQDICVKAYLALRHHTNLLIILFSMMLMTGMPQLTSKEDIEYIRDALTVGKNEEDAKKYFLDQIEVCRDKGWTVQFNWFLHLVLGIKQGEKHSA
Chain of PI3K-delta (O00329 whole entry, species assumed, the tested form may be a part): as the sequence (O00329 whole entry) above
Chain of PI3K-delta (P27986 whole entry partner, species assumed, the tested form may be a part): as the sequence (P27986 whole entry partner) above

Compound: c1cc(CN2CCCNCCNCCCNCC2)ccc1CN1CCCNCCNCCCNCC1 [AMD3100]
- tumor vasculogenesis and tumor regrowth (post-irradiated tumors): blocked tumor vasculogenesis and tumor regrowth

Compound: CC[C@H](Nc1ncnc2[nH]cnc12)c1nc2cccc(F)c2c(=O)n1-c1ccccc1 [CAL-101]
- lymph node and lymphocyte response in CLL patients ([1]; CLL patients): induces rapid lymph node reduction and redistribution of lymphocytes into the circulation
- single agent clinical activity in lymphoma ([1]; mantle cell lymphoma and refractory non Hodgkin's lymphoma): active in mantle cell lymphoma
- clinical activity in CLL ([1]; phase 1 trial, patients with poor prognostic characteristics): showed activity in CLL
- expression of stromal and T-cell derived factors including CCL3, CCL4, and CXCL13 (CCL3, CCL4, and CXCL13): suppresses the expression

Compound: C[C@H](NC(=O)c1c(N)nn2cccnc12)c1cc2cccc(C#Cc3cnn(C)c3)c2c(=O)n1-c1ccccc1 [Compound 4]
- predicted human dose to achieve exposure at the IC90 for PI3K-γ [2]: approximately 2 mg

Compound: Cc1c(C#Cc2cccc3nc([C@H](C)NC(=O)c4c(N)nn5cccnc45)n(-c4ccccc4)c(=O)c23)cnn1C [Compound 88, (S)-2-amino-N-(1-(5-((1,5-dimethyl-1H-pyrazol-4-yl)ethynyl)-4-oxo-3-phenyl-3,4-dihydroquinazolin-2-yl)ethyl)pyrazolo[1,5-a]pyrimidine-3-carboxamide]
- IC50 (PI3K α): 5000 to 10000 nM
- IC50 (PI3K β): 5000 to 10000 nM
- IC50 (PI3K δ): 5000 to 10000 nM
- IC50 (PI3K γ): 100 to 500 nM
- PI3K δ/PI3K γ IC50 (selectivity) (PI3K γ): X (key: V = 0.1 to 1; W = >1 to <10; X = 10 to <50; Y = 50 to <850)
- IC50 (PI3K-δ in RAJI cells; [9]): 100 to 500 nM
- RAJIδ/Raw264.7 γ IC50 (selectivity) [3]: Y (key: V = 0.1 to 1; W = >1 to <10; X = 10 to <50; Y = 50 to <850)
- IC50 [3, 10]: 1 to 50 nM
- tlast ([4]; 2 mg/kg PO NMP): 8 h
- tlast ([4]; 7.5 mg/kg PO NMP): 24 h
- tlast ([4]; 15 mg/kg PO NMP): 24 h
- stability in serum (unbound plasma concentration time course) ([4]; female mice, 2, 7.5, 15 mg/kg PO): good stability in serum
- AUC(0-t) ([4]; 2 mg/kg, 2 mg/kg PO NMP, read-out: AUC0-8): 3890 ng·h/mL
- AUC(0-t) ([4]; 2 mg/kg, 2 mg/kg PO NMP, read-out: AUClast): 3890 ng·h/mL
- AUC(0-t) ([4]; 7.5 mg/kg, 7.5 mg/kg PO NMP, read-out: AUC0-8): 15800 ng·h/mL
- AUC(0-t) ([4]; 7.5 mg/kg, 7.5 mg/kg PO NMP, read-out: AUClast): 20600 ng·h/mL
- AUC(0-t) ([4]; 15 mg/kg, 15 mg/kg PO NMP, read-out: AUC0-8): 34600 ng·h/mL
- AUC(0-t) ([4]; 15 mg/kg, 15 mg/kg PO NMP, read-out: AUClast): 71700 ng·h/mL
- Cmax ([4]; 2 mg/kg PO NMP): 654 ng/mL
- Tmax ([4]; 2 mg/kg PO NMP): 2 h
- AUC(0-inf) ([4]; 7.5 mg/kg PO NMP): 20700 ng·h/mL
- Cmax ([4]; 7.5 mg/kg PO NMP): 3700 ng/mL
- Tmax ([4]; 7.5 mg/kg PO NMP): 1 h
- half-life ([4]; 7.5 mg/kg PO NMP): 2.8 h
- AUC(0-inf) ([4]; 15 mg/kg PO NMP): 81200 ng·h/mL
- Cmax ([4]; 15 mg/kg PO NMP): 5700 ng/mL
- Tmax ([4]; 15 mg/kg PO NMP): 1 h
- half-life ([4]; 15 mg/kg PO NMP): 7.9 h

- IC50 (PI3K α): 5000 to 10000 nM
- IC50 (PI3K β): 5000 to 10000 nM
- IC50 (PI3K δ): 5000 to 10000 nM
- IC50 (PI3K γ): 500 to 1000 nM
- PI3K δ/PI3K γ IC50 (selectivity) (PI3K γ): W (W = >1 to <10)
- IC50 (PI3K-δ in RAJI cells; [9]): 100 to 500 nM
- RAJIδ/Raw264.7 γ IC50 (selectivity) [3]: W (W = >1 to <10)
- IC50 [3, 10]: 100 to 10000 nM
Compound: C[C@H](NC(=O)c1c(N)nn2cccnc12)c1cc2cccc(CC(=O)c3cnn(C)c3)c2c(=O)n1-c1ccccc1 [Compound 91]

Compound: CC(C)n1c([C@H](C)Nc2ncnc(N)c2C#N)cc2cccc(-c3ccc(=O)n(C)c3)c2c1=O [Compound AA, reference compound]
- inhibition of IFN-γ (human T cells): highly selective inhibitor of IFN-γ
- gamma/delta selectivity ratio (PI3K δ; IC50 against PI3K gamma divided by IC50 against PI3K delta): greater than 50
- IC50 (PI3K-δ in RAJI cells; read-out: Cellular IC50 δ): 0.1 nM
- IC50 ([3]; read-out: Cellular IC50 γ): 418 nM
- IC50 (PI3K-α in SKOV-3 cells): 1900 nM
- IC50 (PI3K-β in 786-O cells): 102 nM
- neutrophil in bronchoalveolar lavage fluid (BALF) [5]: reduced neutrophil
- Free Plasma Conc ([6]; p.o. 0.2 mg/kg, 1.5h): BLQ
- concentration at 1.5 h ([6]; p.o. 1 mg/kg, 1.5h): 1.8 nM
- concentration at […] ([6]; p.o. 1 mg/kg): 1.1 nM
- concentration at 1.5 h ([6]; p.o. 5 mg/kg, 1.5h): 17.8 nM
- concentration at […] ([6]; p.o. 5 mg/kg): 4.6 nM
- IC50, CXCL12 induced p-AKT ([7]; differentiated and M1 polarized macrophage): did not significantly inhibit
- IC50, CXCL12 induced p-AKT ([7]; differentiated and M2 polarized macrophage): did not significantly inhibit
- IC50 (PI3K-delta): < 100 nM
- IL-8 induced neutrophil migration [8]: does not inhibit IL-8 induced neutrophil migration

Compound: O=P1(N(CCCl)CCCl)NCCCO1 (centres unmarked) [cyclophosphamide, reference compound]
- tumor growth, LLC tumor brei model (LLC tumor brei): reduced tumor growth
